Experimental data from patent publication EP0307279A2, “Use of (5-amino-2-(4-methyl-1-piperidinyl)phenyl)-(4-chlorophenyl)methanone as an antiviral agent” (FOURNIER INNOVATION ET SYNERGIE, priority 1987, dated 1989).

Experiments:
Format in all cases: cell-based
virus HIV 1 [1] = assay: Protocol 1: pre-treatment of human lymphocytes before HIV 1 infection, reverse transcriptase activity in culture supernatant
Method: (§1) Pour chacun des trois protocoles qui suivent, on a préparé une solution mère de (5-amino-2-(4-méthyl-1-pipéridinyl)phényl)-(4-chlorophényl)-méthanone à 100 mg/l dans de l'eau physiologique contenant 9 g/l de chlorure de sodium et acidifiée à pH=3 par de l'acide chlorhydrique. La solution mère est ensuite diluée dans un milieu RPMI 1640 jusqu'à la concentration désirée. La solution ainsi obtenue est stérilisée par filtration sur membrane "MILLIPORE" ayant un diamètre moyen de pores de 0,22 m.
(§2) A partir de cellules T lymphoblastoïdes (lignée CEM) infectées par un virus HIV et donc susceptibles de produire ledit virus HIV, on recueille ce dernier par des moyens appropriés à partir d'un surnageant de culture desdites cellules.
(§3) Les cellules utilisées sont des lymphocytes de sujets normaux HIV négatifs isolés à partir du sang périphérique par gradient de Ficoll puis stimulés pendant trois jours par de la phytohémagglutinine p (en abrégé pHAp) avant leur utilisation.
Les lymphocytes sont ensuite cultivés dans le milieu RPMI 1640 contenant 10 % de sérum de veau foetal, 10 % d'interleukine II, 2 g/ml de polybrène, 1 % de glutamine, 1 % d'antibiotiques et une dilution au 1/2500 de sérum anti-interféron humain. […]

virus HIV 1 [2] = assay: Protocol 2: treatment of human lymphocytes during HIV 1 adsorption, reverse transcriptase activity in culture supernatant
Method: as §1, §2, §3
(§4) Les lymphocytes sont ensuite cultivés dans le milieu RPMI 1640 contenant 10 % de sérum de veau foetal, 10 % d'interleukine II, 2 g/ml de polybrène, 1 % de glutamine, 1 % d'antibiotiques et une dilution au 1/2500 de sérum anti-interféron humain.
(§5) La production du virus HIV par des cellules T humaines traitées ou non par le produit a été régulièrement suivie par mesure de l'activité transcriptase inverse, représentative de la réplication virale, et présente dans 1 ml de surnageant de culture. On concentre 100 fois 1 ml de surnageant par ultracentrifugation puis on détermine l'activité enzymatique de cet échantillon dans 50 l d'un mélange réactionnel contenant 50 mM de tampon tris (hydroxyméthylaminométhane) de pH=7,9, 20 mM de KCl, 5 mM de MgCl₂, 1 mM de 1,4-dithiothréitol, 0,05 unité de densité optique par ml d'acide polyadénylique (5′), 0,05 unité de densité optique par ml d'acide oligodéoxythymidylique 12-18, 5 Ci de ³HTTP et 0,1 % de Triton X 100. Après une heure d'incubation à 37°C, les produits acido-insolubles sont précipités par de l'acide trichloracétique à 20 %, filtrés sur "MILLIPORE" 0,45 m, puis la radioactivité contenue dans ces produits de réaction est mesurée à l'aide d'un compteur à scintillation Kontron.
(§6) Les figures 1 à 3 qui représentent l'activité transcriptase inverse (A exprimée en cpm/ml) en fonction du temps (t exprimé en nombre de jours), comprennent chacune quatre courbes : T représentant l'activité transcriptase inverse dans la culture témoin. C₁ représentant l'activité transcriptase inverse pour la culture traitée par une dose de 0,1 g/ml de produit. C₂ représentant l'activité transcriptase inverse pour la culture traitée par une dose de 0,05 g/ml de produit, et C₃ représentant l'activité transcriptase inverse pour la culture traitée par une dose de 0,01 g/ml de produit. […]

virus HIV 1 [3] = assay: Protocol 3: treatment of human lymphocytes after HIV 1 adsorption (post-treatment), reverse transcriptase activity in culture supernatant
Method: as §1, §2, §3, §4, §5, §6

In the case of `CC1CCN(c2ccc(N)cc2C(=O)c2ccc(Cl)cc2)CC1` [produit, (5-amino-2-(4-méthyl-1-pipéridinyl)phényl)-(4-chlorophényl)-méthanone], the “inhibition du pouvoir infectieux du virus HIV 1 (activité transcriptase inverse)” value (virus HIV 1 [1]; pre-treatment 18 h before infection, human lymphocytes, whatever the dose (0,1, 0,05, 0,01 µg/ml), figure 1) is reported as “inhibition partielle”, the “retard dans l'apparition du pic de transcriptase inverse” value (virus HIV 1 [1]; pre-treatment, whatever the dose, versus untreated control culture) is reported as “retard important” and the “inhibition du pouvoir infectieux du virus HIV 1” value (virus HIV 1 [2]; during viral adsorption, 0,1 µg/ml (curve C1)) is reported as “maximale”. For the same molecule, the “inhibition du pouvoir infectieux du virus HIV 1” value (virus HIV 1 [2]; during viral adsorption, 0,01 µg/ml (curve C3)) was “partielle”, the “inhibition du pouvoir infectieux du virus HIV 1” value (virus HIV 1 [2]; during viral adsorption, 0,05 µg/ml (curve C2)) was “partielle” and the “inhibition du pouvoir infectieux du virus HIV 1 pour les cellules T humaines” value (virus HIV 1 [2]; product present during viral adsorption (1 h, 37°C), various concentrations (curves C1 to C3), figure 2) was “inhibition très significative”. The “inhibition de l'infection virale” value (virus HIV 1 [3]; post-treatment for three passages after adsorption, 0,1 µg/ml (curve C1), figure 3) was “très significative”, the “inhibition de l'infection virale” value (virus HIV 1 [3]; post-treatment, 0,01 µg/ml (curve C3)) was “partielle” and the “inhibition de l'infection virale” value (virus HIV 1 [3]; post-treatment, 0,05 µg/ml (curve C2)) was “partielle”. The “rapport des pics des courbes T et C₁ (activité transcriptase inverse)” value (virus HIV 1 [3]; post-treatment, 0,1 g/ml, control peak / treated peak) was roughly 10.
